Laboratory results from article PMC11477194, “3-Alkoxy-1-Benzyl-5-Nitroindazole Derivatives Are Potent Antileishmanial Compounds” (International Journal of Molecular Sciences, 2024).
Read-outs that look alike come from different tables or passages of the source.

Tests used:
[1] = Cytotoxicity in mouse peritoneal macrophages (resazurin); assay type: cell-based; details: concentration that causes lysis of 50% of BALB/c mouse peritoneal macrophages
Procedure: To obtain peritoneal macrophages, the mice were sacrificed by cervical dislocation, and the resident cells in the peritoneum were extracted by washing with RPMI (Roswell Park Memorial Institute, Buffalo, NY, USA) medium and cold (4 °C) supplemented with 10% FBS and antibiotics (sodium penicillin 200 IU/mL and streptomycin 200 μg/mL). Cell concentration was calculated using Neubauer chamber counts in an optical microscope (Motic, Xiamen, China) with a 40× objective and 10× eyepieces (400× magnification).
Cytotoxicity in mouse peritoneal macrophages: Peritoneal macrophages were adjusted to 10^5 macrophages/mL, and 200 μL was seeded per well in a 96-well plate and incubated at 33 °C and 5% CO2 for 2 h. Subsequently, the non-attached cells were discarded, and the monolayer was washed with PBS. The compounds were tested in serial dilutions of 1/2.5 (650–1.0 μM). The treated cultures were incubated for 48 h at 33 °C in a humidified atmosphere containing 5% CO2.
(§1) Every concentration of the test compounds was assessed in quadruplicate.
(§2) Cell viability was assessed using the resazurin transformation method. After the incubation period, 20 μL of 3 mM resazurin solution prepared in sterile PBS was added to each well. Reading was performed at 540 nm excitation and 590 nm emission wavelengths after 8 h of incubation in a 96-well plate reader (SUMA®, Habana, Cuba). The mean fluorescence intensity was calculated for each concentration. From the mean values of fluorescence and the corresponding product concentrations, a non-linear fit to the Emax sigmoid model was performed, and the mean inhibitory concentrations (IC50), mean effective concentrations (EC50), and the mean cytotoxic concentration (CC50) were estimated. The selectivity index was calculated as SIp = CC50/IC50 and SIa = CC50/EC50 for the promastigote and amastigote stages, respectively.

[2] = system: L. amazonensis intracellular amastigotes; assay: Intracellular amastigote assay, L. amazonensis; assay type: cell-based; details: read-out: EC50 ± SD
From the text: (§3) The strains used in this research were MHOM/BR/77/LTB0016 of L. amazonensis from the Pedro Kouri Institute of Tropical Medicine Cuba strains collection, MHOM/FR/78/LEM75 of L. infantum from the Department of Parasitology, Faculty of Pharmacy of the Complutense University of Madrid Spain, and MNYC/BZ/62/M379 of L. mexicana from the Laboratory of Molecular Immunobiochemistry and Heart Diseases UNAM-INC Mexico Research Unit. The parasites were obtained from the skin lesions of previously infected BALB/c mice and maintained at 26 °C in Schneider medium (SIGMA, St. Louis, MO, USA) and supplemented with antibiotics (penicillin sodium 200 IU/mL and streptomycin 200 μg/mL SIGMA, St. Louis, MO, USA) and 10% fetal bovine serum (FBS, SIGMA, St. Louis, MO, USA), and inactivated with heat (56 °C, 30 min). The promastigotes, once isolated, were kept in the exponential multiplication phase by successive subcultures every 3 or 4 days until the time of use.
(§4) Intracellular amastigote assay: Macrophages were seeded in 96-well plates at an initial density of 10^5 cells/mL in a final volume of 200 µL per well. After 2 h of incubation at 33 °C and 5% CO2, the cell monolayer was infected with a culture of promastigotes in the stationary phase of growth at a ratio of 10:1 (promastigotes: macrophages) and incubated under the same conditions for 4 h. The compounds were tested in serial dilutions of 1/2.5 (15–0.02 μM). The treated cultures were then incubated for 48 h under similar conditions. After incubation, the RPMI medium was removed and replaced with Schneider’s medium. Cultures were incubated for 72 h at 26 °C to allow the surviving amastigotes to transform into promastigotes and replicate.
as §1, §2

[3] = system: L. infantum intracellular amastigotes; assay: Intracellular amastigote assay, L. infantum; assay type: cell-based; details: read-out: EC50 ± SD
From the text: as §3, §4, §1, §2

[4] = system: L. mexicana intracellular amastigotes; assay: Intracellular amastigote assay, L. mexicana; assay type: cell-based; details: Leishmania mexicana, read-out: EC50 ± SD, intracellular amastigotes, L. mexicana
From the text: as §3, §4, §1, §2

[5] = system: amastigotes of L. amazonensis; details: cited from earlier work
[6] = system: promastigotes of L. amazonensis; assay: Scanning and transmission electron microscopy of treated promastigotes; assay type: cell-based; details: for Structural damage, scanning electron microscopy: L. amazonensis promastigotes treated at IC50, ½ IC50, ¼ IC50; for Ultrastructural damage, transmission electron microscopy: L. amazonensis promastigotes, 72 h of incubation at IC50, ½ IC50, ¼ IC50
From the text: The concentrations of compounds selected for the study of structural and ultrastructural damage were those corresponding to IC50, ½ IC50, and ¼ IC50 for compound NV8 (reported in this study) and the previously reported compound VATR 131 [21]. The procedure for the treatment of cultures was the same as that described above for the in vitro tests on promastigotes of L. amazonensis. Two negative controls were used: a DMSO-treated culture (0.1%) and an untreated culture.
At the end of the exposure to the compounds, the parasites were washed once with PBS and immediately fixed with 2.5% glutaraldehyde in PBS for 1 h at room temperature. After a thorough wash with PBS, the parasites were fixed with 1% OsO4 in PBS at 4 °C for 1 h and then washed with PBS. The parasites were dehydrated in increasing concentrations of ethanol. Drying was carried out at the critical point of CO2 in a Samdry 780 apparatus (USA). Next, they were evaporated with gold in a Denton Vacuum Desk (USA). Finally, the samples were observed and micrographed using a JSM 6510LB-JEOL microscope at 30 keV.
Promastigotes were washed with PBS and fixed with 2.5% glutaraldehyde solution for 1 h at 4 °C. They were then fixed with a solution of 1% OsO4 in the same buffer at 4 °C and in darkness for 1 h. Promastigotes were washed with PBS at RT and dehydrated in an ethanolic solution in increasing order by up to 100%. They were then included in the epoxy resin using specific molds for polymerization and maintained at 60 °C for a minimum period of 72 h. The blocks were cut with an ultramicrotome (Reichert Jung, Austria) into thin sections. The slices were stained with uranyl acetate and lead citrate and subsequently micrographed using a JEM 1400 transmission electron microscope (JEOL, Ltd., Tokyo, Japan).

[7] = system: L. infantum promastigotes; assay: Susceptibility assay in promastigotes, L. infantum; assay type: cell-based; details: 72 h, read-out: IC50 ± SD
From the text: as §3
(§5) Susceptibility assay in promastigotes: Promastigotes culture in the exponential growth phase were seeded in 96-well plates (10^6 parasites/mL) at a final volume of 200 μL/well. Compounds were tested in serial 1/2.5 dilutions (130–0.2 μM). The treated cultures were incubated for 72 h at 26 °C.
as §1, §2

[8] = system: L. mexicana promastigotes; assay: Susceptibility assay in promastigotes, L. mexicana; assay type: cell-based; details: 72 h
From the text: as §3, §5, §1, §2

[9] = system: L. amazonensis promastigotes; assay: Susceptibility assay in promastigotes, L. amazonensis; assay type: cell-based; details: 72 h, read-out: IC50 ± SD
From the text: as §3, §5, §1, §2

Leishmania spp. [10] = assay: Antileishmanial activity, species not separated (pooled statement or literature); assay type: cell-based; details: all Leishmania species; active = IC50 ≤ 1 μM and SI ≥ 10
Leishmania spp. [11] = details: promastigote stage, drug used in the clinic; cited from earlier work
[12] = system: L. amazonensis promastigotes; set-up: method as in PMID 37915499; details: promastigotes of L. amazonensis; previously reported compound; cited from earlier work
[13] = BALB/c, mouse, peritoneal macrophages
[14] = Leishmania amazonensis, intracellular amastigotes, L. amazonensis
[15] = Leishmania infantum, intracellular amastigotes, L. infantum
[16] = Leishmania infantum, promastigotes, L. infantum
[17] = Leishmania mexicana, read-out: IC50 ± SD, promastigotes, L. mexicana, 72 h
[18] = intracellular amastigotes, L. infantum
[19] = Leishmania amazonensis, promastigotes, L. amazonensis

Structure (SMILES)	CC50 at 48 h [1, 13] [µM]	EC50 [3, 15] [µM]	EC50 [4] [µM]	IC50 [7, 16] [µM]	IC50 [8, 17] [µM]	IC50 [9, 19] [µM]	further results
O=[N+]([O-])c1ccc2c(c1)c(OCCN1CCCCC1)nn2Cc1ccccc1 [NV7]	24.4 ± 6.7	12.8 ± 0.13	3.1 ± 1.05	–	–	–	EC50 [2, 14]: 5.61 ± 0.69 µM
c1ccc2ncccc2c1 [quinoline]	–	–	–	–	–	–	EC50 [5]: 0.54 µM
O=[N+]([O-])c1ccc2c(c1)c(OCCCN1CCCCC1)nn2Cc1ccccc1 [NV8]	23.2 ± 5	–	–	–	–	–	Structural damage, scanning electron microscopy [6]: the bodies were completely swollen and spheroidal in appearance; Ultrastructural damage, transmission electron microscopy [6]: most of the parasites are atypical; many are swollen or deformed and present large cytosolic vacuoles
O=[N+]([O-])c1ccc2c(c1)c(OCCCCCN1CCCCC1)nn2Cc1ccccc1 [NV16]	21.1 ± 7.1	–	4.29 ± 0.48	1.41 ± 0.03	≤ 1	–	IC50 ([8]; read-out: IC50 ± SD, promastigotes, L. mexicana): 0.5 ± 0.1 µM
C[C@@H](c1nc(-c2ccc(C#N)cc2)cs1)[C@](O)(Cn1cncn1)c1ccc(F)cc1F [ravuconazole]	–	–	–	–	–	–	EC50 [5]: 5.11 µM
CN(C)CCCOc1nn(Cc2ccccc2)c2ccc([N+](=O)[O-])cc12 [NV6]	61 ± 6.9	≤ 5	–	≤ 1	–	–	IC50 ([7]; promastigotes, L. infantum): 0.69 ± 0.063 µM; EC50 [3, 18]: 3.79 ± 1.46 µM
CN(C)CCCCCOc1nn(Cc2ccccc2)c2ccc([N+](=O)[O-])cc12 [NV14]	2.5 ± 0.7	–	8.2 ± 0.2	0.93 ± 0.18	–	0.5 ± 0.22	–
CNCCOc1nn(Cc2ccccc2)c2ccc([N+](=O)[O-])cc12 [NV13]	61.4 ± 9.4	16.2 ± 0.54	11.6 ± 0.7	–	–	≤ 1	IC50 ([9]; promastigotes, L. amazonensis): 0.82 ± 0.27 µM; EC50 [2, 14]: 5.66 ± 0.53 µM
NCCCCCOc1nn(Cc2ccccc2)c2ccc([N+](=O)[O-])cc12 [NV17]	7.74 ± 3	11.8 ± 1.04	–	–	2.9 ± 0.1	1.01 ± 0.39	–
CN(C)CCOc1nn(Cc2ccccc2)c2ccc([N+](=O)[O-])cc12 [NV4]	67.1 ± 8.9	≤ 5	–	≤ 1	2.3 ± 0.4	–	IC50 ([7]; promastigotes, L. infantum): 0.52 ± 0.05 µM; EC50 [2, 14]: 12.3 ± 0.7 µM; EC50 [3, 18]: 3.42 ± 1.8 µM
CNCCCCCOc1nn(Cc2ccccc2)c2ccc([N+](=O)[O-])cc12 [NV15]	5.6 ± 2.5	–	1.53 ± 0.13	1.27 ± 0.06	–	1.88 ± 1.34	–
O=[N+]([O-])c1ccc2c(c1)c(OCCCCCBr)nn2Cc1ccccc1 [NV12]	–	–	–	32.96 ± 0.25	2.8 ± 1.1	2.88 ± 1.47	Classification against promastigotes (Leishmania spp. [10]): inactive
O=[N+]([O-])c1ccc2c(c1)c(OCCBr)nn2Cc1ccccc1 [NV11]	–	–	–	20.4 ± 1.3	9.38 ± 0.13	20.7 ± 1.38	Classification against promastigotes (Leishmania spp. [10]): inactive
N=C(N)c1ccc(OCCCCCOc2ccc(C(=N)N)cc2)cc1 [pentamidine]	–	–	–	–	–	–	IC50 (Leishmania spp. [11]): 30 µM
NCCOc1nn(Cc2ccccc2)c2ccc([N+](=O)[O-])cc12 [NV10]	46.7 ± 7.7	–	–	≤ 1	4.5 ± 0.5	≤ 1	IC50 ([9]; promastigotes, L. amazonensis): 0.99 ± 0.14 µM; IC50 ([7]; promastigotes, L. infantum): 0.93 ± 0.27 µM; EC50 [2, 14]: ≤ 5 µM; EC50 ([2]; intracellular amastigotes, L. amazonensis): 4.35 ± 0.9 µM
C[C@@H]1[C@H](O)[C@@H](C)/C=C/C=C/C=C/C=C/C=C/C=C/C=C/[C@H](O[C@@H]2O[C@H](C)[C@@H](O)[C@H](N)[C@@H]2O)C[C@@H]2O[C@](O)(C[C@@H](O)C[C@@H](O)[C@H](O)CC[C@@H](O)C[C@@H](O)CC(=O)O[C@H]1C)C[C@H](O)[C@H]2C(=O)O [AmB, Amphotericin B, reference compound]	–	–	0.036 ± 0.008	–	0.046 ± 0.012	–	CC50 at 48 h [1]: 5.8 ± 0.5 µM; IC50 ([9]; Leishmania amazonensis): 0.03 ± 0.01 µM; IC50 ([7]; Leishmania infantum): 0.28 ± 0.01 µM; EC50 ([2]; Leishmania amazonensis): 0.034 ± 0.006 µM; EC50 ([3]; Leishmania infantum): 0.6 ± 0.21 µM
CCCCCCCCCCCCCCCCOP(=O)([O-])OCC[N+](C)(C)C [miltefosine]	–	–	–	–	–	–	IC50 (Leishmania spp. [11]): 50.7 µM
NCCCOc1nn(Cc2ccccc2)c2ccc([N+](=O)[O-])cc12 [NV9]	47.9 ± 10.4	9.71 ± 0.4	–	≤ 1	2.8 ± 3	≤ 1	IC50 ([9]; promastigotes, L. amazonensis): 0.81 ± 0.17 µM; IC50 ([7]; promastigotes, L. infantum): 0.59 ± 0.16 µM
CC(=O)OCCn1c2ccc([N+](=O)[O-])cc2c(=O)n1Cc1ccccc1 [VATR 131]	–	–	–	–	–	–	Structural damage, scanning electron microscopy [6]: an alteration in the morphology of the parasites was observed from the lowest concentration of the compound; Ultrastructural damage, transmission electron microscopy [6]: very similar to those observed for NV8 at concentrations equivalent to ¼ IC50 and ½ IC50; IC50 [12]: 2.13 µM
